Target: GABAA central benzodiazepine receptor
Test: Benzodiazepine Binding Assay
Conditions: read-out: BZ binding Assay IC50; 1 nM (3H)-flunitrazepam, rat whole brain (except cerebellum) membranes, 60 minutes at 25° C.

Row | Compound | IC50 [µM]
1 | CN1CCN(C(=O)n2cc3c(=O)n(-c4ccsc4)nc-3c3cc(F)c(F)cc32)CC1 [Compd 49, 5-(4-Methylpiperazine-1-carbonyl)-2-(thiophen-3-yl)-7,8-difluoro-2,5-dihydro-pyrazolo[4,3-c]quinolin-3-one] | < 1
2 | O=C(N1CCC(O)CC1)n1cc2c(=O)n(-c3ccsc3)nc-2c2cc(F)c(F)cc21 [Compd 50, 5-(4-Hydroxypiperidine-1-carbonyl)-2-(thiophen-3-yl)-7,8-difluoro-2,5-dihydro-pyrazolo[4,3-c]quinolin-3-one] | < 1
3 | O=C(N1CCC(O)CC1)n1cc2c(=O)n(-c3ccccc3)nc-2c2cc(F)c(F)cc21 [Compd 51, 5-(4-Hydroxypiperidine-1-carbonyl)-2-phenyl-7,8-difluoro-2,5-dihydro-pyrazolo[4,3-c]quinolin-3-one] | > 1
4 | CN1CCCN(C(=O)n2cc3c(=O)n(-c4ccccc4)nc-3c3cc(F)c(F)cc32)CC1 [Compd 52, 5-(4-Methylperhydro[1,4]-diazepine-1-carbonyl)-7,8-difluoro-2-phenyl-2,5-dihydro-pyrazolo[4,3-c]quinolin-3-one] | < 1
5 | CC(C)N1CCN(C(=O)n2cc3c(=O)n(-c4ccccn4)nc-3c3cc(F)c(F)cc32)CC1 [Compd 53, 5-(4-Isopropylpiperazine-1-carbonyl)-7,8-difluoro-2-(2′-pyridyl)-2,5-dihydro-pyrazolo-[4,3-c]quinolin-3-one] | > 1

Source: patent US8343957B2, “Therapeutic pyrazoloquinoline urea derivatives” (Dart Neuroscience (Cayman) Ltd., priority 2007, dated 2013)
